Measurements taken from patent US6372501B1, “Glucose responsive β-cell line” (Aberdeen University, priority 1997, dated 2002).
pIC50: −log10 of the molar value. Entries after “also recorded” stand apart in the source; their conditions may differ. Where two headings read alike, the source gives them in different places.

Tests used:
[1] = tested on: recombinant KATP channels; test: Patch-clamp recording of recombinant KATP channels in NISK 9 β-cells; format: cell-based, human; settings: for effect on K+ channel in inside-out patch: NISK 9 β-cell, same inside-out patch, ATP 500 μM, diazoxide 500 μM in the presence of ATP, tolbutamide 250 μM, efaroxan 200 μM; for effect of nucleotides on recombinant KATP channels: ADP in the presence of inhibitory concentration of ATP; for effect on recombinant KATP channels: NISK 9 β-cells, cell attached (n=4) and inside-out patch (n=5)
Protocol: In panel A, all data come from the same inside-out patch recording. […] When recorded using symmetrical 140 mM KCl-rich solutions on either side of the cell membrane the channel has an inwardly-retifying relationship, with an estimated inward current conductance of approximately 70 pS. See also claim 11 hereinafter.
Panels A and B were obtained under the same conditions as illustrated in FIG. 9. […] In panel B, tolbutamide is shown to inhibit diazoxide-activated KATP channels in an inside-out patch; note that when this configuration is used, ATP must be added to the inside face of the cell membrane to facilitate diazoxide-induced K^+ channel activation. Mean data from several experiments are also illustrated in panels A and B. See also claim 11 hereinafter.
All data comes from the same membrane recording: an inside-out patch record obtained from a NISK 9 β-cell. […] Closure of KATP channels was also associated with a rise in the cytosolic concentration ([Ca^2+]1), not shown. Thus, the Δ[Ca^2+]1 for tolbutamide was found, on average to be 158+/−24 nM (n=22), and for efaroxan 195+/−40 nM (n=12). See also claim 11 hereinafter.
(§1) All data were obtained from either primary cultured human islet cells (control) or from NES 2Y β-cells(transfected and untransfected) by patch-clamp techniques.
(§2) Standard KCl- and NaCl-rich solutions were used in all electophysiology recordings to provide quasi-physiological cationic gradients. Procedures used for data collection and analysis were described previously.

NISK 9 β-cells [2] = test: Ca2+ microfluorimetry (fura-2) in NISK 9 β-cells; format: cell-based, human; settings: for Δ[Ca2+]i, rise in the cytosolic concentration: average, tolbutamide n=22, efaroxan n=12; for effect on cytosolic Ca2+ ([Ca2+]i): glucose n=8, n=22, KCl 40 mM n=22
Protocol: (§3) Ca^2+ microfluorimetry experiments were performed with fura-2-loaded cells and intact islets as described previously.

KATP channels [3] = target: T1, KATP channels (Homo sapiens, UniProt Q09428+Q14654); test: Patch-clamp recording of KATP channels in control human β-cells; format: cell-based; settings: cell attached configuration, diazoxide 500 μM, tolbutamide 200 μM
T1 construct: primary cultured human islet cells (control); endogenous in cells; host or cells: primary cultured human islet beta-cells
Description: (In the record shown, the maximum number of coincident open ion channel events is increased from 3 to 30). Under the same experimental conditions none of these agents had any action on ion channel events in the NES 2Y β-cells. Similar data were obtained in 4 (panel A) and 18 (panel B) other control experiments, and in a total of N=10 (panel A) and n=10 (panel B) NES 2Y β-cells experiments. Note that upward deflections represent outward current events, and that the broken lines indicate the zero current level which corresponds to closure of all K^+ channels. The same ionic gradients were used for each of the experimental protocols described, and all data are plotted to the same scales in each panel.
as §1, §2

KATP channels [4] = test: Patch-clamp recording of KATP channels in NES 2Y β-cells; format: cell-based, human; settings: intact cells (diazoxide 0.5 mM) or cell-free patches (cocktail)
[5] = tested on: voltage-gated Ca2+ channels; format: cell-based, human
[6] = tested on: voltage-gated Ca2+ channels; format: cell-based, human; remark: listed apart in the source
untransfected cells = settings: 800 μg/ml G418 (data not shown)
NES 2Y β-cells [7] = test: Ca2+ microfluorimetry (fura-2) in NES 2Y β-cells; format: cell-based, human; settings: KCl 40 mM, tolbutamide 0.2 mM, glucose 20 mM
Protocol: as §3

NES 2Y β-cells [8] = test: Insulin release (radioimmunoassay) from NES 2Y β-cells; format: cell-based, human; settings: 40 mM KCl, 0.2 mM tolbutamide, glucose
Protocol: (§4) Insulin was measured by radioimmunoassay using an anti-human insulin antibody (Linco, UK) and ^125I-human insulin, as previously described.

NISK 9 β-cells [9] = test: Insulin release (radioimmunoassay) from NISK 9 β-cells; format: cell-based, human; settings: glucose 0.5-16 mM, KCl 40 mM, tolbutamide 0.2 mM
Protocol: NISK 9 cells (NES 2Y cells stably transfected with IUF1, Sur1 and Kir 6.2) were preincubated for 180 minutes in media containing 0.5 mM glucose. The media was then replaced with that containing the indicated concentrations of glucose, and the media samples assayed for insulin by radioimmunoassay after a further 60 minutes incubation. The data are presentative of two experiments, and show the mean +/− standard deviation of 6 separate determinations. The NISK9 cell line is shown to secrete insulin in response to changes in glucose in the physiological concentration range.
as §4

[10] = tested on: voltage-gated Na+ channels; format: cell-based, human
[11] = tested on: voltage-gated Na+ channels; format: cell-based, human; remark: listed apart in the source

T1 sequence (Q09428 whole entry): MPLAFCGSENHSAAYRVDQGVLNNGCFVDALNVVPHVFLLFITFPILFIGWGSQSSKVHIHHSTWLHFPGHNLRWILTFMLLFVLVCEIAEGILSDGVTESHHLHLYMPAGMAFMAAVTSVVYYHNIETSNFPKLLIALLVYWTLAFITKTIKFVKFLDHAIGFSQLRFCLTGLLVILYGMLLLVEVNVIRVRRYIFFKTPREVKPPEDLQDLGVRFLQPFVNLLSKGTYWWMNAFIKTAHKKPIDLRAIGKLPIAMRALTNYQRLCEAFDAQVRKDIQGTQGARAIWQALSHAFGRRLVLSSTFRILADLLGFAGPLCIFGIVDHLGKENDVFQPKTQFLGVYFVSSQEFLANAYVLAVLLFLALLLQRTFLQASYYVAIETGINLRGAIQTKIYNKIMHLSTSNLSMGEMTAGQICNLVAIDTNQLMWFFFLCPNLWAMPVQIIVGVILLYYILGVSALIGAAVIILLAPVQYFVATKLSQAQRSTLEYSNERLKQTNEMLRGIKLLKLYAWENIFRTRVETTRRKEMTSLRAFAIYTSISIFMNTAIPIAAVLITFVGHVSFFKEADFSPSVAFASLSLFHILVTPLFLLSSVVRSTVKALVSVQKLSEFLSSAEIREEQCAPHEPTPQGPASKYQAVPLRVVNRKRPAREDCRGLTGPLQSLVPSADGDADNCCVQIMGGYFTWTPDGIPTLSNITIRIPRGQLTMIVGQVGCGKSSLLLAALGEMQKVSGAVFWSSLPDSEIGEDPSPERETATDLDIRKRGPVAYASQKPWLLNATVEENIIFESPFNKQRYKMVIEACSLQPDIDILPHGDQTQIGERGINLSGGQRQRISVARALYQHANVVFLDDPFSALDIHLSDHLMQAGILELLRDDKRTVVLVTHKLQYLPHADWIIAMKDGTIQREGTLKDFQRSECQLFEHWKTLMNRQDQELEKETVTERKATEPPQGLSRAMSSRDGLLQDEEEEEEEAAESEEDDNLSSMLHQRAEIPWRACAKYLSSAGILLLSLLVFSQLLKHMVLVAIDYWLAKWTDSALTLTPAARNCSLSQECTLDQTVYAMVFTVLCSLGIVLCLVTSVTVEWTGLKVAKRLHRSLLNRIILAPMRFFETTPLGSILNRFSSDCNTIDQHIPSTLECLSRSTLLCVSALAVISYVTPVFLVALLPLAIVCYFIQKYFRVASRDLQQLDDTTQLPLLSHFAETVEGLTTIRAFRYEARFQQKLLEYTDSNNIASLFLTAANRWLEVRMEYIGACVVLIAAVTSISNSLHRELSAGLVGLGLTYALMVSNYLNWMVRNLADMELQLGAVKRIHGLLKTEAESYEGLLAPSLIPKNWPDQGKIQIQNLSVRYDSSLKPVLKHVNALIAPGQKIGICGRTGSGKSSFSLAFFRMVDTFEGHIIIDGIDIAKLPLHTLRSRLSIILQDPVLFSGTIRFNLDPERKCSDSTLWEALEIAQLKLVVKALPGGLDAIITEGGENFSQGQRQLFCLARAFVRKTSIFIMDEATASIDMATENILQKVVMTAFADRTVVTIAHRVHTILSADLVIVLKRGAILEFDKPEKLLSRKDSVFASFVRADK
T1 sequence (Q14654 whole entry): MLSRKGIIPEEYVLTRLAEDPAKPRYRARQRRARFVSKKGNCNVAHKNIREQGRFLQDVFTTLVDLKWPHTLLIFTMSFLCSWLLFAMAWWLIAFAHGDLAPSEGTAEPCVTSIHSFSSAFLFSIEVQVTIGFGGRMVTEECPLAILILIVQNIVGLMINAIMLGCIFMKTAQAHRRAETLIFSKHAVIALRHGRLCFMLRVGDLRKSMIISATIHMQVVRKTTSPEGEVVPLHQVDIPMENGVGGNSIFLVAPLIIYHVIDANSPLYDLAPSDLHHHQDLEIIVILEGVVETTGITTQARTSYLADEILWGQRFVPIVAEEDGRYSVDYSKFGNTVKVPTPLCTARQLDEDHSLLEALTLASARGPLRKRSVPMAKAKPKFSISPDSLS

SMILES: Nc1ncnc2c1ncn2[C@@H]1O[C@H](COP(=O)(O)OP(=O)(O)OP(=O)(O)O)[C@@H](O)[C@H]1O [ATP]
- effect on K+ channel in inside-out patch [1]: channel block
- pIC50 ([1]; NISK β-cells, inside-out patch, ATP 0.005-1 mM, n=4, read-out: 50% inhibition of KATP channels): 5.00 to 5.30
- effect of nucleotides on recombinant KATP channels ([1]; NISK β-cells, inside-out patch): inhibition of channels

SMILES: CC1=NS(=O)(=O)c2cc(Cl)ccc2N1 [diazoxide]
- effect on the glucose-induced rise in [Ca2+]i (NISK 9 β-cells [2]; n=5): inhibited
- effect on K+ channel in inside-out patch [1]: activation
- effect on recombinant KATP channels [1]: activated
- effect on spontaneously open KATP channels (KATP channels [3]): activated
- effect on KATP channel activity / ion channel events (KATP channels [4]): no response

SMILES: Nc1ncnc2c1ncn2[C@@H]1O[C@H](COP(=O)(O)OP(=O)(O)O)[C@@H](O)[C@H]1O [ADP]
- effect of nucleotides on recombinant KATP channels ([1]; NISK β-cells, inside-out patch): activated; also recorded: reversible recovery from closure

SMILES: COC(=O)C1=C(C)NC(C)=C([N+](=O)[O-])C1c1ccccc1C(F)(F)F (racemic) [(+/−) BAY K-8644]
- effect on Ttx-insensitive currents [5]: activation
- effect on Ttx-insensitive currents [6]: activation

SMILES: CN[C@@H]1[C@@H](O)[C@@H](O[C@@H]2[C@@H](O)[C@H](O[C@H]3O[C@H]([C@@H](C)O)[C@@H](O)[C@H](O)[C@H]3N)[C@@H](N)C[C@H]2N)OC[C@]1(C)O [G418]
- time to toxic cell death (untransfected cells): ≤ 12 h

SMILES: CCCCNC(=O)NS(=O)(=O)c1ccc(C)cc1 [tolbutamide]
- Δ[Ca2+]i, rise in the cytosolic concentration (NISK 9 β-cells [2]): 158 ± 24 nM
- effect on cytosolic Ca2+ ([Ca2+]i) (NISK 9 β-cells [2]): raise [Ca^2+]i
- effect on cytosolic Ca2+ ([Ca2+]i) (NES 2Y β-cells [7]): no elevation of [Ca^2+]i
- effect on K+ channel in inside-out patch [1]: channel inhibition
- effect on recombinant KATP channels [1]: inhibited
- KATP channel activity remaining, % of the control value ([1]; isolated patches, 0.25 mM tolbutamide, n=3): 40.8±8.5%
- effect on spontaneously open KATP channels (KATP channels [3]): inhibited
- insulin release (NES 2Y β-cells [8]): fail to release insulin
- insulin secretion (NISK 9 β-cells [9]): regulated insulin secretion

SMILES: CCC1(C2=NCCN2)Cc2ccccc2O1 (stereo not drawn) [efaroxan]
- Δ[Ca2+]i, rise in the cytosolic concentration (NISK 9 β-cells [2]): 195 ± 40 nM
- effect on K+ channel in inside-out patch [1]: channel inhibition
- KATP channel activity remaining, % of the immediate control value ([1]; isolated patches, 0.2 mM efaroxan, n=3): 8.5±5.6%

SMILES: [Cl-].[K+] [KCl]
- effect on cytosolic Ca2+ ([Ca2+]i) (NISK 9 β-cells [2]): raise [Ca^2+]i
- effect on cytosolic Ca2+ ([Ca2+]i) (NES 2Y β-cells [7]): no elevation of [Ca^2+]i
- insulin release (NES 2Y β-cells [8]): fail to release insulin
- insulin secretion (NISK 9 β-cells [9]): regulated insulin secretion

SMILES: NC1=N[C@H](O)[C@H]2[C@H]3O[C@]4(O)O[C@@H]([C@@H](O)[C@@]2(N1)[C@@H]4O)[C@]3(O)CO [tetrodotoxin]
- effect on voltage-gated currents [10]: inhibition
- effect on voltage-gated currents [11]: inhibition
